The results in this text go back to article PMC10525585, “Evaluation of the Antibacterial Effect of Aurone-Derived Triazoles on Staphylococcus aureus” (Antibiotics, 2023).

Values joined by “and” are separate entries in the source; they are usually repeats but may differ in a detail not shown here. Identical values can stand only once. Like-named read-outs stand apart in the source and are kept apart here.

For series [1], the system named is methicillin-sensitive S. aureus ATCC 29213 (MSSA). The experiment in a line: microbe, parasite or virus in culture. As to conditions: Table S1; for IC50: read-out: IC50 MSSA. Here is the method: (§1) MRSA strain ATCC 43300 and MSSA strain S. aureus ATCC 29213 were grown on Tryptic Soy Agar (TSA) plates. Before use, an isolated colony was transferred from the TSA plate into Tryptic Soy Broth (TSB) and incubated 18–24 h in a humidified incubator at 37 °C. To adjust for a standard concentration of bacteria, the turbidity of the culture was measured at 600 nm, and its optical density (OD600) adjusted to be in the range 0.08–0.12 which equates to a concentration of approximately 1 × 10^8 CFU/mL. This suspension was diluted 1:20 in TSB. […] MRSA strain S. aureus ATCC 43300 and MSSA strain S. aureus ATCC 29213 were used for all testing in this study.
(§2) The assay for anti-Staphylococcal activity of AT compounds was prepared in 96-well transparent, U-bottom plates. A series of 2-fold dilutions of AT concentrations was tested in triplicate, with each well containing 10 µL of prepared bacterium and 90 µL of AT mixture in CAMHB. […] Blank wells with only CAMHB, a negative control well with 10 µL of bacterium solution mixed into 90 µL CAMHB, a vehicle control well with bacteria mixed into 1% DMSO in CAMBH, and a positive cell death control with vancomycin (1 µL of stock 2 mg/mL solution in 89 µL CAMHB with 10 µL of bacteria) were included. The plate was incubated for 18–24 h at 37 °C in a humidified incubator. Before measurement, PrestoBlue^TM dye (Invitrogen, Carlsbad, CA, USA) was added (10 µL per well) and incubated for 1 h with aluminum foil covering the plate. A CLARIOstar® (BMG LABTECH, Cary, NC, USA) multi-mode plate reader was used to measure the fluorescence at wavelengths of 560 nm for excitation and 590 nm for emission. Inhibitory concentration (IC50) values were defined as half inhibitory concentration and were computed using GraphPad Prism version 9.1 software.

The subject of series [2] is methicillin-resistant S. aureus ATCC 43300 (MRSA). The experiment in a line: Antibacterial assay (broth microdilution, PrestoBlue). The format is cell-based, Staphylococcus aureus. The following applies: for MRSA inhibition (100µM) / IC50: Table S1; for IC50: read-out: IC50 MRSA. Here is the method:
as §1, §2

Series [3] concerns HepG2 (ATCC HB-8065) cells. Nature of the series: Cytotoxicity assay (PrestoBlue). The format is cell-based, Human.
Series [4] deals with HeLa (ATCC CCL-2) cells. The experiment in a line: Cytotoxicity assay (PrestoBlue). Here is the method:
Human HeLa epithelial (ATCC CCL-2) and HepG2 liver epithelial (ATCC HB-8065) cell lines were used to determine toxicity of AT compounds for mammalian cells. The cells were grown in a complete culture medium of RPMI 1640 with 10% heat-inactivated fetal bovine serum (FBS) at 37 °C in 5% CO2 (95% room air) in a humidified incubator. Before use, attached cell monolayers, which had reached at least 90% confluency, were detached by trypsinization with trypsin-EDTA (0.25%) and resuspension in fresh complete culture media. For experiments, the stock concentration of 1 × 10^5 cells/mL (to achieve a final 1 × 10^4 cells/well concentration) was achieved by counting the trypsinized cells and adjusting to their final concentration for assays.
HeLa or HepG2 cells were pre-seeded into a 96-well transparent, flat bottom plate by adding a volume of 100 µL stock cell concentration (1 × 10^5 cells/mL) in complete culture media to each well. The plate was incubated overnight at 37 °C in a 5% CO2 (95% room air) humidified incubator. After the incubation and before mixing in the AT compounds, a 100 µL volume of fresh complete culture media was added to the pre-seeded wells. The 2-fold dilutions of AT compounds in triplicates were prepared on a separate 96-well plate. Once the dilution plate was prepared, dilutions were transferred into the pre-seeded plate to achieve the same concentrations of ATs as for the inhibition assay described above. The final inoculated plate was then returned to the 5% CO2 (95% room air) humidified incubator for an additional 24 h of incubation with the diluted ATs. Controls were blank wells containing only media, wells with cells and DMSO in complete culture media, and wells with cells and complete culture media only. Measurement of toxicity was analogous to the inhibition assay except that 20 µL of PrestoBlue^TM was used and the incubation was 3–6 h before reading with the plate-reader. Cytotoxicity concentration (CC50) was defined as the concentration where half of the cells remained viable and was computed using GraphPad Prism.

By IC50 is commonly meant the concentration that inhibits the measured activity by half. For orientation: CC50 means the concentration that lowers cell viability or growth by half. Turning to `N#Cc1ccc(-c2n[nH]nc2C(=O)c2cccc(Br)c2O)cc1` [AT124], in series [1], the “MSSA inhibition (100µM)” value worked out at 43.36%. Moreover, in series [2], the “MRSA inhibition (100µM)” value was 32.16% and the IC50 was 13.4 µM. Besides, in series [3], it took 3.85 µM to reach half-maximal cytotoxicity (CC50).
In the case of `Cc1ccc(-c2n[nH]nc2C(=O)c2cc(C)c(C)cc2O)cc1` [AT133], the “MSSA inhibition (100µM)” value in series [1] is listed as 88.47%. The “MRSA inhibition (100µM)” value in series [2] is listed as 58.84%.
On to `O=C(c1ccccc1O)c1n[nH]nc1-c1cccc([N+](=O)[O-])c1` [AT104], for which, in series [2], the “MRSA inhibition (100µM)” value turned out to be 48.19%.
For `N#Cc1ccc(-c2n[nH]nc2C(=O)c2cc(F)ccc2O)cc1` [AT126], in series [1], the “MSSA inhibition (100µM)” value is 64.72%. In series [2], the “MRSA inhibition (100µM)” value was found to be 75.06%.
As to `Cc1cccc(C(=O)c2n[nH]nc2-c2cccc([N+](=O)[O-])c2)c1O` [AT132], the “MSSA inhibition (100µM)” value in series [1] came to 83.03%. Moreover, the “MRSA inhibition (100µM)” value in series [2] is 57.99%.
For the compound `Cc1ccc(-c2n[nH]nc2C(=O)c2cccc(Cl)c2O)cc1` [AT123], in series [1], the “MSSA inhibition (100µM)” value amounted to 99.45% and the IC50 came to 12.5 µM. Besides, in series [2], the “MRSA inhibition (100µM)” value is given as 23.62% and the IC50 amounted to 31.2 µM. Also, the CC50 in series [3] came out at 58.7 µM. Moreover, the CC50 in series [4] (read-out: CC50 HeLa, Table S1) turned out to be 14.4 µM.
As to `O=C(c1ccccc1O)c1n[nH]nc1-c1cccs1` [AT135], in series [1], the “MSSA inhibition (100µM)” value was found to be 46.76%. Moreover, the “MRSA inhibition (100µM)” value in series [2] is 5.42%. In addition, in series [2] (compared with AT137 (no bromine on the thiophene ring)), the “decrease of anti-MRSA activity” value is given as “over 15 fold”.
With `N#Cc1ccc(-c2n[nH]nc2C(=O)c2cccc(Cl)c2O)cc1` [AT119], the “MSSA inhibition (100µM)” value in series [1] is 64.36%. In addition, the “MRSA inhibition (100µM)” value in series [2] is reported as 46.21%.
On the same counts, the results for `N#Cc1ccccc1-c1n[nH]nc1C(=O)c1ccccc1O` [AT102] are 0% and 35.77%.
On the same counts, the results for `CC(=O)Nc1ccc(-c2n[nH]nc2C(=O)c2ccccc2O)cc1` [AT136] are 0% and 0%.
On the same counts, the results for `O=C(c1ccccc1O)c1n[nH]nc1-c1ccccc1Cl` [AT108] are 30.63% and 8.46%.
With `O=C(c1ccccc1O)c1n[nH]nc1-c1ccc(I)cc1` [AT113], the “MSSA inhibition (100µM)” value in series [1] is on record as 85.79%. In addition, the “MRSA inhibition (100µM)” value in series [2] was determined as 43.81%.
On the same counts, the results for `O=C(c1ccccc1O)c1n[nH]nc1-c1ccsc1` [AT134] are 10.83% and 0%.
The matching figures for `N#Cc1ccc(-c2n[nH]nc2C(=O)c2c(O)cccc2Cl)cc1` [AT122]: 1.01% and 18.51%.
Turning to `O=C(c1ccccc1O)c1n[nH]nc1-c1cccc(Cl)c1` [AT107], the “MSSA inhibition (100µM)” value in series [1] is recorded as 50.24%. In addition, the “MRSA inhibition (100µM)” value in series [2] is recorded as 56.47%.
As to `N#Cc1ccc(-c2n[nH]nc2C(=O)c2ccccc2O)cc1` [AT100], the “MSSA inhibition (100µM)” value in series [1] was 58.77%. The “MRSA inhibition (100µM)” value in series [2] is 96.47% and > 96%. Moreover, the IC50 in series [2] is 38.8 µM. Besides, the CC50 in series [3] was determined as 70.7 µM; in series [4] (read-out: CC50 HeLa, Table S1), 19.1 µM.
Turning to `O=C(c1ccccc1O)c1n[nH]nc1-c1ccc([N+](=O)[O-])cc1` [AT103], the “MSSA inhibition (100µM)” value in series [1] came out at 81.57%. In series [2], the “MRSA inhibition (100µM)” value worked out at 88.53% and the IC50 stood at 3.98 µM. This compound also registered a CC50 in series [3] of 2.65 µM.
As for `O=C(c1ccccc1O)c1n[nH]nc1-c1ccc(O)cc1` [AT117], the “MSSA inhibition (100µM)” value in series [1] came out at 0%. In addition, in series [2], the “MRSA inhibition (100µM)” value amounted to 19.39%.
The matching figures for `Cc1ccc(O)c(C(=O)c2n[nH]nc2-c2cccc([N+](=O)[O-])c2)c1` [AT131]: 21.31% and 0%.
The matching figures for `Cc1cc(O)c(C(=O)c2n[nH]nc2-c2cccc([N+](=O)[O-])c2)cc1C` [AT130]: 58.75% and 43.97%.
For `N#Cc1ccc(-c2n[nH]nc2C(=O)c2ccc(Cl)cc2O)cc1` [AT120], in series [1], the “MSSA inhibition (100µM)” value is 71.82% and the IC50 amounted to 6.03 µM. Besides, in series [2], the “MRSA inhibition (100µM)” value is given as 99.51% and the IC50 worked out at 4.18 µM. The same compound gave a CC50 in series [3] of 38.1 µM. In series [4], the CC50 is 17.2 µM.
